Measurements: ChEMBL document CHEMBL2151007, “Total Syntheses and Cytotoxicity of (R)- and (S)-Boehmeriasin A” (ACS Med Chem Lett, 2011)

Key:
[1] = system: MCF7; experiment: Cytotoxicity against human MCF7 cells; assay type: functional
[2] = system: COLO 205; experiment: Cytotoxicity against human COLO205 cells; assay type: functional
[3] = Cytotoxicity against human NCI-ADR-RES cells after 48 hrs by Alamar blue assay; assay type: functional, cell-based
[4] = system: MCF7; experiment: Cytotoxicity against human MCF7 cells after 48 hrs by Alamar blue assay; assay type: functional, cell-based; conditions: MCF7, 48 h
[5] = system: COLO 205; experiment: Cytotoxicity against human COLO205 cells after 48 hrs by Alamar blue assay; assay type: functional, cell-based; conditions: COLO 205, 48 h

SMILES | GI50 [1] | GI50 [2] | IC50 [3] | IC50 [4] | IC50 [5]
COc1ccc2c3c(c4cc(OC)c(OC)cc4c2c1)CN1CCCC[C@@H]1C3 | 0.013 µM | 0.0008 µM | 0.0367 µM | 0.0434 µM | 0.00418 µM
COc1ccc2c3c(c4cc(OC)c(OC)cc4c2c1)CN1CCCC[C@H]1C3 |  |  | 0.434 µM | 0.0927 µM | 0.103 µM
CC(=O)O[C@H]1C(=O)[C@@]2(C)[C@H]([C@H](OC(=O)c3ccccc3)[C@]3(O)C[C@H](OC(=O)[C@H](O)[C@@H](NC(=O)c4ccccc4)c4ccccc4)C(C)=C1C3(C)C)[C@]1(OC(C)=O)CO[C@@H]1C[C@@H]2O [PACLITAXEL] |  |  | > 6.4 µM | 0.00162 µM | 0.00331 µM
